Where two headings read alike, the source gives them in different places.
Assays:
[1] = tested on: antibodies directed against NS3 (HCV) in sera; format: binding, human
[2] = tested on: Rhodamine Conjugated affinity Purified anti-Biotin [goat]
Procedure: (§1) Each concentration is spotted 6 times per slide.
(§2) The slides are incubated for 2 hours at 37° C. under a moist atmosphere. A series of 4 successive washings is carried out with PBS solution to which 0.05% Tween 20 had been added. The slides are then rinsed with a deionised water wash-bottle then with 95° ethanol for 1 minute, then dried for 15 minutes in the ambient atmosphere.
(§3) The results expressed in the following table correspond to the mean fluorescence and to the standard deviation of the 6 spots of each concentration obtained after incubation of the rhodamine-conjugated streptavidin and the rhodamine- conjugated anti-biotin antibody respectively.

[3] = target: Streptavidin Tetramethyl Rhodamine conjugate (Streptomyces avidinii, UniProt P22629)
Procedure: as §1, §2, §3

[4] = target: rhodamine-conjugated streptavidin (Streptomyces avidinii, UniProt P22629); conditions: streptavidin 10^−3 mg/ml
Procedure: as §1
The slides are then incubated in the presence of 150 μl of a 10^−3 mg/ml solution of rhodamine-conjugated streptavidin (solution of streptavidin Tetramethyl Rhodamine conjugate (Molecular Probes, Oregon, USA)) diluted in an 0.01 M PBS buffer, pH 7.2 in 15 the presence of different concentrations of biotin (10^−3 M, 10^−4 M, 10^−5 M, 10^−7 M and 0 M under a glass cover slip (24×60 mm). The slides are incubated for 2 hours at 37° C. under a moist atmosphere. A series of 4 successive washings is carried out with PBS solution to which 0.05% Tween 20 had been added. The slides are then rinsed, dried and analysed as stated above.

[5] = Sérum 1, NS3 positive, positivity threshold 2205
[6] = Sérum 2, NS3 positive, positivity threshold 3565
[7] = Sérum 3, NS3 positive, positivity threshold 4374
[8] = Sérum 4, NS3 positive, positivity threshold 2774
[9] = Sérum HCV-, positivity threshold 1271

rhodamine-conjugated streptavidin, sequence (P22629 37-163 limits assumed): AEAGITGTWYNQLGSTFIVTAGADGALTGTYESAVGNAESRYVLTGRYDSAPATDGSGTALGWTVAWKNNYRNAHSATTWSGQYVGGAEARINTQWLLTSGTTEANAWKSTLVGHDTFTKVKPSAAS
Streptavidin Tetramethyl Rhodamine conjugate, sequence (P22629 37-163 limits assumed): as above

Substance: AAKLSGLGIN [Peptide 11]
- Fluorescence [1, 5]: 2156
- Fluorescence [1, 6]: 1557
- Fluorescence [1, 7]: 1458
- Fluorescence [1, 8]: 5283
- Fluorescence [1, 9]: 628

Substance: AIPLEAIKGG [Peptide 4]
- Fluorescence [1, 5]: 2899
- Fluorescence [1, 6]: 2988
- Fluorescence [1, 7]: 2497
- Fluorescence [1, 8]: 5598
- Fluorescence [1, 9]: 1011

Substance: DVSVIPTSGD [Peptide 19]
- Fluorescence [1, 5]: 9088
- Fluorescence [1, 6]: 4111
- Fluorescence [1, 7]: 2337
- Fluorescence [1, 8]: 4939
- Fluorescence [1, 9]: 567

Substance: EAIKGGRHLL [Peptide 8]
- Fluorescence [1, 5]: 2343
- Fluorescence [1, 6]: 1220
- Fluorescence [1, 7]: 1159
- Fluorescence [1, 8]: 2587
- Fluorescence [1, 9]: 525

Substance: ELAAKLSGLG [Peptide 9]
- Fluorescence [1, 5]: 1582
- Fluorescence [1, 6]: 1142
- Fluorescence [1, 7]: 1671
- Fluorescence [1, 8]: 2418
- Fluorescence [1, 9]: 508

Substance: GKAIPLEAIK [Peptide 2]
- Fluorescence [1, 5]: 3590
- Fluorescence [1, 6]: 8023
- Fluorescence [1, 7]: 3495
- Fluorescence [1, 8]: 7405
- Fluorescence [1, 9]: 933

Substance: GLDVSVIPTS [Peptide 17]
- Fluorescence [1, 5]: 7976
- Fluorescence [1, 6]: 6423
- Fluorescence [1, 7]: 2619
- Fluorescence [1, 8]: 7338
- Fluorescence [1, 9]: 754

Substance: GLGINAVAYY [Peptide 16]
- Fluorescence [1, 5]: 4201
- Fluorescence [1, 6]: 5577
- Fluorescence [1, 7]: 1861
- Fluorescence [1, 8]: 5602
- Fluorescence [1, 9]: 931

Substance: H-Lys(biotin-G2)AYLAG-NH(CH2)3O(CH2)2O(CH2)2O(CH2)3NHCOCHO [pep-Biotine]
- mean fluorescence (6 spots) ([2]; pep-Biotine 10^−3 mg/ml, anti-biotin antibody 10^−1 mg/ml): 15350
- mean fluorescence (6 spots) ([2]; pep-Biotine 10^−3 mg/ml, anti-biotin antibody 10^−2 mg/ml): 13113
- mean fluorescence (6 spots) ([2]; pep-Biotine 10^−3 mg/ml, anti-biotin antibody 10^−3 mg/ml): 6828
- mean fluorescence (6 spots) ([2]; pep-Biotine 10^−3 mg/ml, anti-biotin antibody 10^−4 mg/ml): 2271
- mean fluorescence (6 spots) ([2]; pep-Biotine 10^−4 mg/ml, anti-biotin antibody 10^−1 mg/ml): 14721
- mean fluorescence (6 spots) ([2]; pep-Biotine 10^−4 mg/ml, anti-biotin antibody 10^−2 mg/ml): 9121
- mean fluorescence (6 spots) ([2]; pep-Biotine 10^−4 mg/ml, anti-biotin antibody 10^−3 mg/ml): 4981
- mean fluorescence (6 spots) ([2]; pep-Biotine 10^−4 mg/ml, anti-biotin antibody 10^−4 mg/ml): 1535
- mean fluorescence (6 spots) ([2]; pep-Biotine 10^−5 mg/ml, anti-biotin antibody 10^−1 mg/ml): 10932
- mean fluorescence (6 spots) ([2]; pep-Biotine 10^−5 mg/ml, anti-biotin antibody 10^−2 mg/ml): 6849
- mean fluorescence (6 spots) ([2]; pep-Biotine 10^−5 mg/ml, anti-biotin antibody 10^−3 mg/ml): 3377
- mean fluorescence (6 spots) ([2]; pep-Biotine 10^−5 mg/ml, anti-biotin antibody 10^−4 mg/ml): 1249
- mean fluorescence (6 spots) ([2]; pep-Biotine 10^−6 mg/ml, anti-biotin antibody 10^−1 mg/ml): 6606
- mean fluorescence (6 spots) ([2]; pep-Biotine 10^−6 mg/ml, anti-biotin antibody 10^−2 mg/ml): 2947
- mean fluorescence (6 spots) ([2]; pep-Biotine 10^−6 mg/ml, anti-biotin antibody 10^−3 mg/ml): 791
- mean fluorescence (6 spots) ([2]; pep-Biotine 10^−6 mg/ml, anti-biotin antibody 10^−4 mg/ml): 385
- mean fluorescence (6 spots) ([3]; pep-Biotine 10^−3 mg/ml, streptavidin 10^−1 mg/ml): 34660
- mean fluorescence (6 spots) ([3]; pep-Biotine 10^−3 mg/ml, streptavidin 10^−3 mg/ml): 29836
- mean fluorescence (6 spots) ([3]; pep-Biotine 10^−3 mg/ml, streptavidin 10^−4 mg/ml): 13816
- mean fluorescence (6 spots) ([3]; pep-Biotine 10^−4 mg/ml, streptavidin 10^−1 mg/ml): 31781
- mean fluorescence (6 spots) ([3]; pep-Biotine 10^−4 mg/ml, streptavidin 10^−3 mg/ml): 24666
- mean fluorescence (6 spots) ([3]; pep-Biotine 10^−4 mg/ml, streptavidin 10^−4 mg/ml): 7931
- mean fluorescence (6 spots) ([3]; pep-Biotine 10^−5 mg/ml, streptavidin 10^−1 mg/ml): 26524
- mean fluorescence (6 spots) ([3]; pep-Biotine 10^−5 mg/ml, streptavidin 10^−3 mg/ml): 20902
- mean fluorescence (6 spots) ([3]; pep-Biotine 10^−5 mg/ml, streptavidin 10^−4 mg/ml): 7673
- mean fluorescence (6 spots) ([3]; pep-Biotine 10^−6 mg/ml, streptavidin 10^−1 mg/ml): 18500
- mean fluorescence (6 spots) ([3]; pep-Biotine 10^−6 mg/ml, streptavidin 10^−3 mg/ml): 10737
- mean fluorescence (6 spots) ([3]; pep-Biotine 10^−6 mg/ml, streptavidin 10^−4 mg/ml): 2124
- mean fluorescence (6 spots) ([4]; pep-Biotine 10^−3 mg/ml, biotin in competition 0 M): 29836
- mean fluorescence (6 spots) ([4]; pep-Biotine 10^−3 mg/ml, biotin in competition 10^−3 M): 376
- mean fluorescence (6 spots) ([4]; pep-Biotine 10^−3 mg/ml, biotin in competition 10^−4 M): 2237
- mean fluorescence (6 spots) ([4]; pep-Biotine 10^−3 mg/ml, biotin in competition 10^−6 M): 16683
- mean fluorescence (6 spots) ([4]; pep-Biotine 10^−3 mg/ml, biotin in competition 10^−7 M): 17132
- mean fluorescence (6 spots) ([4]; pep-Biotine 10^−4 mg/ml, biotin in competition 0 M): 24666
- mean fluorescence (6 spots) ([4]; pep-Biotine 10^−4 mg/ml, biotin in competition 10^−3 M): 207
- mean fluorescence (6 spots) ([4]; pep-Biotine 10^−4 mg/ml, biotin in competition 10^−4 M): 961
- mean fluorescence (6 spots) ([4]; pep-Biotine 10^−4 mg/ml, biotin in competition 10^−6 M): 9414
- mean fluorescence (6 spots) ([4]; pep-Biotine 10^−4 mg/ml, biotin in competition 10^−7 M): 12178
- mean fluorescence (6 spots) ([4]; pep-Biotine 10^−5 mg/ml, biotin in competition 0 M): 20902
- mean fluorescence (6 spots) ([4]; pep-Biotine 10^−5 mg/ml, biotin in competition 10^−3 M): 107
- mean fluorescence (6 spots) ([4]; pep-Biotine 10^−5 mg/ml, biotin in competition 10^−4 M): 322
- mean fluorescence (6 spots) ([4]; pep-Biotine 10^−5 mg/ml, biotin in competition 10^−6 M): 3588
- mean fluorescence (6 spots) ([4]; pep-Biotine 10^−5 mg/ml, biotin in competition 10^−7 M): 6129
- mean fluorescence (6 spots) ([4]; pep-Biotine 10^−6 mg/ml, biotin in competition 0 M): 10737
- mean fluorescence (6 spots) ([4]; pep-Biotine 10^−6 mg/ml, biotin in competition 10^−3 M): 78
- mean fluorescence (6 spots) ([4]; pep-Biotine 10^−6 mg/ml, biotin in competition 10^−4 M): 189
- mean fluorescence (6 spots) ([4]; pep-Biotine 10^−6 mg/ml, biotin in competition 10^−6 M): 2350
- mean fluorescence (6 spots) ([4]; pep-Biotine 10^−6 mg/ml, biotin in competition 10^−7 M): 2611

Substance: IPLEAIKGGR [Peptide 5]
- Fluorescence [1, 5]: 2260
- Fluorescence [1, 6]: 2339
- Fluorescence [1, 7]: 1549
- Fluorescence [1, 8]: 4739
- Fluorescence [1, 9]: 945

Substance: IPTSGDVVVV [Peptide 23]
- Fluorescence [1, 5]: 2983
- Fluorescence [1, 6]: 3394
- Fluorescence [1, 7]: 1818
- Fluorescence [1, 8]: 4505
- Fluorescence [1, 9]: 904

Substance: KAIPLEAIKG [Peptide 3]
- Fluorescence [1, 5]: 2803
- Fluorescence [1, 6]: 3161
- Fluorescence [1, 7]: 1694
- Fluorescence [1, 8]: 5065
- Fluorescence [1, 9]: 924

Substance: LAAKLSGLGI [Peptide 10]
- Fluorescence [1, 5]: 3166
- Fluorescence [1, 6]: 2418
- Fluorescence [1, 7]: 1684
- Fluorescence [1, 8]: 9152
- Fluorescence [1, 9]: 551

Substance: LDVSVIPTSG [Peptide 18]
- Fluorescence [1, 5]: 29857
- Fluorescence [1, 6]: 4113
- Fluorescence [1, 7]: 4824
- Fluorescence [1, 8]: 6209
- Fluorescence [1, 9]: 667

Substance: LEAIKGGRHL [Peptide 7]
- Fluorescence [1, 5]: 1845
- Fluorescence [1, 6]: 1307
- Fluorescence [1, 7]: 1084
- Fluorescence [1, 8]: 3077
- Fluorescence [1, 9]: 574

Substance: PLEAIKGGRH [Peptide 6]
- Fluorescence [1, 5]: 2789
- Fluorescence [1, 6]: 3136
- Fluorescence [1, 7]: 2821
- Fluorescence [1, 8]: 5932
- Fluorescence [1, 9]: 957

Substance: PTSGDYVVVA [Peptide 24]
- Fluorescence [1, 5]: 1835
- Fluorescence [1, 6]: 1436
- Fluorescence [1, 7]: 1387
- Fluorescence [1, 8]: 3532
- Fluorescence [1, 9]: 573

Substance: SGLGINAVAY [Peptide 15]
- Fluorescence [1, 5]: 17944
- Fluorescence [1, 6]: 10603
- Fluorescence [1, 7]: 4786
- Fluorescence [1, 8]: 8262
- Fluorescence [1, 9]: 791

Substance: SVIPTSGDVV [Peptide 21]
- Fluorescence [1, 5]: 3553
- Fluorescence [1, 6]: 8321
- Fluorescence [1, 7]: 2244
- Fluorescence [1, 8]: 6853
- Fluorescence [1, 9]: 913

Substance: VIPTSGDVVV [Peptide 22]
- Fluorescence [1, 5]: 1882
- Fluorescence [1, 6]: 1466
- Fluorescence [1, 7]: 1385
- Fluorescence [1, 8]: 2963
- Fluorescence [1, 9]: 648

Substance: VSVIPTSGDV [Peptide 20]
- Fluorescence [1, 5]: 7909
- Fluorescence [1, 6]: 4711
- Fluorescence [1, 7]: 2873
- Fluorescence [1, 8]: 11266
- Fluorescence [1, 9]: 718

Substance: YGKAIPLEAI [Peptide 1]
- Fluorescence [1, 5]: 3735
- Fluorescence [1, 6]: 3143
- Fluorescence [1, 7]: 2608
- Fluorescence [1, 8]: 6357
- Fluorescence [1, 9]: 917
